Data published in patent US8614223B2, “Pyrimidine hydroxy amide compounds as protein deacetylase inhibitors and methods of use thereof” (Acetylon Pharmaceuticals, Inc., priority 2010, dated 2013).

Columns and labels:
[1] = target: HDAC3 (Homo sapiens (Human), UniProt O15379); assay: HDAC enzyme assay, HDAC3; details: for HDAC3 fold over HDAC6 IC50 (selectivity for HDAC6): ratio HDAC3/HDAC6; for IC50: read-out: HDAC3 IC50
[2] = target: HDAC2 (Homo sapiens (Human), UniProt Q92769); assay: HDAC enzyme assay, HDAC2; details: for HDAC2 fold over HDAC6 IC50 (selectivity for HDAC6): ratio HDAC2/HDAC6; for IC50: read-out: HDAC2 IC50
[3] = target: HDAC6 (Homo sapiens (Human), UniProt Q9UBN7); details: read-out: HDAC6 IC50
[4] = target: HDAC1 (Homo sapiens (Human), UniProt Q13547); assay: HDAC enzyme assay, HDAC1; details: for HDAC1 fold over HDAC6 IC50 (selectivity for HDAC6): ratio HDAC1/HDAC6; for IC50: read-out: HDAC1 IC50
Sequence of HDAC1 (Q13547 whole entry): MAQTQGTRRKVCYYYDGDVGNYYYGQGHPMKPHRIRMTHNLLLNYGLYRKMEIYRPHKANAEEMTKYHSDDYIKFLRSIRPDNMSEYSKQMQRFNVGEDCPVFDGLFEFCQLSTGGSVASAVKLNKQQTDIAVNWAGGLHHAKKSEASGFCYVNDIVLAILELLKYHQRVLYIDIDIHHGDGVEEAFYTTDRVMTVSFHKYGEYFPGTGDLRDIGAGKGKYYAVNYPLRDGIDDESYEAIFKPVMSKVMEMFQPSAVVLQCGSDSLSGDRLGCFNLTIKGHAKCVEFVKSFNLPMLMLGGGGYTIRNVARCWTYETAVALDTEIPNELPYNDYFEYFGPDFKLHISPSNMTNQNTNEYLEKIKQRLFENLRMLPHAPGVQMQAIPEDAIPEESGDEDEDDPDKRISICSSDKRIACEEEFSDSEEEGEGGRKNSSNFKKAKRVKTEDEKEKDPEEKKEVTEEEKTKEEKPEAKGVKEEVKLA

Sequence of HDAC2 (Q92769 whole entry): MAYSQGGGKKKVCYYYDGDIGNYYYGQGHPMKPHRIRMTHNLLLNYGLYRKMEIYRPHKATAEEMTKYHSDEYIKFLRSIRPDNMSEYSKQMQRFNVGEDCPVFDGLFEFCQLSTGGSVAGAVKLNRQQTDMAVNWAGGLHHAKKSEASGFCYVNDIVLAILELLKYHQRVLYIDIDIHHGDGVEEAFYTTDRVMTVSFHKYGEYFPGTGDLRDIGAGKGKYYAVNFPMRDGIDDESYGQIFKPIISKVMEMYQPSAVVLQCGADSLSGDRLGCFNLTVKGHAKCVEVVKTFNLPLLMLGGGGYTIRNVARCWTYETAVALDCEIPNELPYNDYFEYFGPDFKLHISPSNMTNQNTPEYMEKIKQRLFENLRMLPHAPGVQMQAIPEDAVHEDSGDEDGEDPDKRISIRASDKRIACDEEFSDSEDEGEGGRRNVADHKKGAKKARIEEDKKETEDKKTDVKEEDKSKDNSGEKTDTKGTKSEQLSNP
Sequence of HDAC6 (Q9UBN7 whole entry): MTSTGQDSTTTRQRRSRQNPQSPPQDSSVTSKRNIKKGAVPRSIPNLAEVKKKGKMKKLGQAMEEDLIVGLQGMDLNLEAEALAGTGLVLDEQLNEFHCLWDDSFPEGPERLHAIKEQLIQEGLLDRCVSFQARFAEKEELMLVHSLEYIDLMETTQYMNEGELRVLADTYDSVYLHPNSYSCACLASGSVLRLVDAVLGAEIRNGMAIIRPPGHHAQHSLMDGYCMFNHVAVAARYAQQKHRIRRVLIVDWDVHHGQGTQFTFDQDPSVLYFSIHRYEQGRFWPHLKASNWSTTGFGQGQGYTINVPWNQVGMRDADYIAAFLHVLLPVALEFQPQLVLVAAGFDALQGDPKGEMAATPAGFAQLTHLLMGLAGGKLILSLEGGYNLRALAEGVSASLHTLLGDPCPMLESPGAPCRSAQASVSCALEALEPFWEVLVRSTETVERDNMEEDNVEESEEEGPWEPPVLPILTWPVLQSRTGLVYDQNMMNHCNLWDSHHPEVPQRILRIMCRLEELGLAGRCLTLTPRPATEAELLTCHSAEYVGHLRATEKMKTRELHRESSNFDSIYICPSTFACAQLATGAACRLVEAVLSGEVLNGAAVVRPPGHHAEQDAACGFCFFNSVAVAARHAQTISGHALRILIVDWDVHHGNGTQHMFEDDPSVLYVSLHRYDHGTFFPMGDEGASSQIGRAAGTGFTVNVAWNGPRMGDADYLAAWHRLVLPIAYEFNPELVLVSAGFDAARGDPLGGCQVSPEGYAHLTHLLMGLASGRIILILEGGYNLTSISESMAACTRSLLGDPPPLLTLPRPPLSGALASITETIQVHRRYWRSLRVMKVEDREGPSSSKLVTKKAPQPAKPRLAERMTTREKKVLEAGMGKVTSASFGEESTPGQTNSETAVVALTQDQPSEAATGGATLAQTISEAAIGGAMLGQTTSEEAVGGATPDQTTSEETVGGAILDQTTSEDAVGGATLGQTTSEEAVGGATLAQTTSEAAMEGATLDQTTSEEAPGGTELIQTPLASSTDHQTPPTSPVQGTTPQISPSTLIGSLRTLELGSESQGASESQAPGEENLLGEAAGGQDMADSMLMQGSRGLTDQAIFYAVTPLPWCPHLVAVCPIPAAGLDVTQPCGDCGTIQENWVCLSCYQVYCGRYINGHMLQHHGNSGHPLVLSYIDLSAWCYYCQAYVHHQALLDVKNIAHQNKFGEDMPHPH
Sequence of HDAC3 (O15379 whole entry): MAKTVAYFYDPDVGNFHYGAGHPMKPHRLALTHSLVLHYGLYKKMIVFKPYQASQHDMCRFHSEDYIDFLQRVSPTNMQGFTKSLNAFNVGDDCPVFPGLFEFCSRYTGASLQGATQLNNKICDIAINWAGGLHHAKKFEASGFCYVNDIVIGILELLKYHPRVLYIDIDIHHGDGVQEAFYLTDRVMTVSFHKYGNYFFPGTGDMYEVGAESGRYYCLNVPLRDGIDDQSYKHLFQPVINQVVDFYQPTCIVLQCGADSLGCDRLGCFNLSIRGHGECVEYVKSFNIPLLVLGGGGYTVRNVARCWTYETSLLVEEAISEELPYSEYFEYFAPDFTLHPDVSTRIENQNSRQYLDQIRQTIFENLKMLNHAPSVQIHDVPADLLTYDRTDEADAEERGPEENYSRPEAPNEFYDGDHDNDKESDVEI
Sequence of HDAC3 (Q9Y618 395-489 partner): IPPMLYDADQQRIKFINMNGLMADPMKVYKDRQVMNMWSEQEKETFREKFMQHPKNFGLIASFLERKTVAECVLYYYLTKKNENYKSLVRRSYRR

## O=C(NO)c1cnc(Nc2cccc(-c3ccncc3)c2)nc1 [Compound 30]
[1]
  HDAC3 fold over HDAC6 IC50 (selectivity for HDAC6): (44.1x)
  IC50: 141 nM
[2]
  HDAC2 fold over HDAC6 IC50 (selectivity for HDAC6): (56.5x)
  IC50: 181 nM
[3]
  IC50: 3 nM
[4]
  HDAC1 fold over HDAC6 IC50 (selectivity for HDAC6): (27.5x)
  IC50: 88 nM

## Cc1cc(Nc2ncc(C(=O)NO)cn2)ccn1 [Compound 31]
[1]
  HDAC3 fold over HDAC6 IC50 (selectivity for HDAC6): (21.1x)
  IC50: 221 nM
[2]
  HDAC2 fold over HDAC6 IC50 (selectivity for HDAC6): (34.7x)
  IC50: 362 nM
[3]
  IC50: 10 nM
[4]
  HDAC1 fold over HDAC6 IC50 (selectivity for HDAC6): (19.8x)
  IC50: 206 nM

## O=C(NO)c1cnc(NCc2ccccc2Cl)nc1 [Compound 33]
[1]
  HDAC3 fold over HDAC6 IC50 (selectivity for HDAC6): (86.7x)
  IC50: 169 nM
[2]
  HDAC2 fold over HDAC6 IC50 (selectivity for HDAC6): (116.2x)
  IC50: 226 nM
[3]
  IC50: 2 nM
[4]
  HDAC1 fold over HDAC6 IC50 (selectivity for HDAC6): (56.4x)
  IC50: 110 nM

## O=C(NO)c1cnc(NCc2cccc(Cl)c2)nc1 [Compound 34]
[1]
  HDAC3 fold over HDAC6 IC50 (selectivity for HDAC6): (25.7x)
  IC50: 34 nM
[2]
  HDAC2 fold over HDAC6 IC50 (selectivity for HDAC6): (21.5x)
  IC50: 28 nM
[3]
  IC50: 1 nM
[4]
  HDAC1 fold over HDAC6 IC50 (selectivity for HDAC6): (15.5x)
  IC50: 20 nM

## O=C(NO)c1cnc(NCc2ccccc2)nc1 [Compound 35]
[1]
  HDAC3 fold over HDAC6 IC50 (selectivity for HDAC6): (70x)
  IC50: 128 nM
[2]
  HDAC2 fold over HDAC6 IC50 (selectivity for HDAC6): (76.2x)
  IC50: 140 nM
[3]
  IC50: 2 nM
[4]
  HDAC1 fold over HDAC6 IC50 (selectivity for HDAC6): (42.3x)
  IC50: 77 nM

## O=C(NO)c1cnc(NCc2ccc(Cl)cc2)nc1 [Compound 36]
[1]
  HDAC3 fold over HDAC6 IC50 (selectivity for HDAC6): (33x)
  IC50: 75 nM
[2]
  HDAC2 fold over HDAC6 IC50 (selectivity for HDAC6): (31.2x)
  IC50: 71 nM
[3]
  IC50: 2 nM
[4]
  HDAC1 fold over HDAC6 IC50 (selectivity for HDAC6): (17.5x)
  IC50: 40 nM

## O=C(NO)c1cnc(NCc2ccc(C(F)(F)F)cc2)nc1 [Compound 37]
[1]
  HDAC3 fold over HDAC6 IC50 (selectivity for HDAC6): (29.8x)
  IC50: 149 nM
[2]
  HDAC2 fold over HDAC6 IC50 (selectivity for HDAC6): (25.4x)
  IC50: 127 nM
[3]
  IC50: 5 nM
[4]
  HDAC1 fold over HDAC6 IC50 (selectivity for HDAC6): (17.8x)
  IC50: 89 nM

## O=C(NO)c1cnc(NCc2ccccc2C(F)(F)F)nc1 [Compound 38]
[1]
  HDAC3 fold over HDAC6 IC50 (selectivity for HDAC6): (128.1x)
  IC50: 891 nM
[2]
  HDAC2 fold over HDAC6 IC50 (selectivity for HDAC6): (103.5x)
  IC50: 720 nM
[3]
  IC50: 7 nM
[4]
  HDAC1 fold over HDAC6 IC50 (selectivity for HDAC6): (67.5x)
  IC50: 470 nM

## O=C(NO)c1cnc(NCCc2ccccc2Cl)nc1 [Compound 39]
[1]
  HDAC3 fold over HDAC6 IC50 (selectivity for HDAC6): (117.9x)
  IC50: 495 nM
[2]
  HDAC2 fold over HDAC6 IC50 (selectivity for HDAC6): (92.2x)
  IC50: 387 nM
[3]
  IC50: 4 nM
[4]
  HDAC1 fold over HDAC6 IC50 (selectivity for HDAC6): (62.6x)
  IC50: 263 nM

## O=C(NO)c1cnc(NCc2cccc(C(F)(F)F)c2)nc1 [Compound 40]
[1]
  HDAC3 fold over HDAC6 IC50 (selectivity for HDAC6): (36.2x)
  IC50: 70 nM
[2]
  HDAC2 fold over HDAC6 IC50 (selectivity for HDAC6): (28.7x)
  IC50: 56 nM
[3]
  IC50: 2 nM
[4]
  HDAC1 fold over HDAC6 IC50 (selectivity for HDAC6): (19.8x)
  IC50: 38 nM

## O=C(NO)c1cnc(NCCc2cccc(Cl)c2)nc1 [Compound 42]
[1]
  HDAC3 fold over HDAC6 IC50 (selectivity for HDAC6): (32.3x)
  IC50: 130 nM
[2]
  HDAC2 fold over HDAC6 IC50 (selectivity for HDAC6): (24.1x)
  IC50: 97 nM
[3]
  IC50: 4 nM
[4]
  HDAC1 fold over HDAC6 IC50 (selectivity for HDAC6): (19.5x)
  IC50: 78 nM

## O=C(NO)c1cnc(NCCc2c[nH]c3ccccc23)nc1 [Compound 43]
[1]
  HDAC3 fold over HDAC6 IC50 (selectivity for HDAC6): (27.1x)
  IC50: 107 nM
[2]
  HDAC2 fold over HDAC6 IC50 (selectivity for HDAC6): (30.3x)
  IC50: 120 nM
[3]
  IC50: 4 nM
[4]
  HDAC1 fold over HDAC6 IC50 (selectivity for HDAC6): (22.8x)
  IC50: 90 nM

## COc1ccccc1CNc1ncc(C(=O)NO)cn1 [Compound 45]
[1]
  HDAC3 fold over HDAC6 IC50 (selectivity for HDAC6): (143.4x)
  IC50: 506 nM
[2]
  HDAC2 fold over HDAC6 IC50 (selectivity for HDAC6): (148.5x)
  IC50: 523 nM
[3]
  IC50: 4 nM
[4]
  HDAC1 fold over HDAC6 IC50 (selectivity for HDAC6): (106.9x)
  IC50: 377 nM

## O=C(NO)c1cnc(NCc2ccccc2OC(F)(F)F)nc1 [Compound 47]
[1]
  HDAC3 fold over HDAC6 IC50 (selectivity for HDAC6): (75.1x)
  IC50: 300 nM
[2]
  HDAC2 fold over HDAC6 IC50 (selectivity for HDAC6): (86.7x)
  IC50: 346 nM
[3]
  IC50: 4 nM
[4]
  HDAC1 fold over HDAC6 IC50 (selectivity for HDAC6): (55.8x)
  IC50: 223 nM

## O=C(NO)c1cnc(NCc2c(Cl)cccc2Cl)nc1 [Compound 48]
[1]
  HDAC3 fold over HDAC6 IC50 (selectivity for HDAC6): (53.9x)
  IC50: 401 nM
[2]
  HDAC2 fold over HDAC6 IC50 (selectivity for HDAC6): (80.8x)
  IC50: 601 nM
[3]
  IC50: 7 nM
[4]
  HDAC1 fold over HDAC6 IC50 (selectivity for HDAC6): (48.8x)
  IC50: 363 nM

## CC(C)(Nc1ncc(C(=O)NO)cn1)c1ccccc1 [Compound 50]
[1]
  HDAC3 fold over HDAC6 IC50 (selectivity for HDAC6): (547.1x)
  IC50: 2210 nM
[2]
  HDAC2 fold over HDAC6 IC50 (selectivity for HDAC6): (374.6x)
  IC50: 1520 nM
[3]
  IC50: 4 nM
[4]
  HDAC1 fold over HDAC6 IC50 (selectivity for HDAC6): (288.1x)
  IC50: 1170 nM

## O=C(NO)c1cnc(NCc2c(CO)cccc2CO)nc1 [Compound 51]
[1]
  HDAC3 fold over HDAC6 IC50 (selectivity for HDAC6): (33.6x)
  IC50: 382 nM
[2]
  HDAC2 fold over HDAC6 IC50 (selectivity for HDAC6): (55x)
  IC50: 624 nM
[3]
  IC50: 11 nM
[4]
  HDAC1 fold over HDAC6 IC50 (selectivity for HDAC6): (41.2x)
  IC50: 468 nM

## O=C(NO)c1cnc(NCc2ccc(F)c(Cl)c2)nc1 [Compound 53]
[1]
  HDAC3 fold over HDAC6 IC50 (selectivity for HDAC6): (27.2x)
  IC50: 43 nM
[2]
  HDAC2 fold over HDAC6 IC50 (selectivity for HDAC6): (19.2x)
  IC50: 30 nM
[3]
  IC50: 2 nM
[4]
  HDAC1 fold over HDAC6 IC50 (selectivity for HDAC6): (14.9x)
  IC50: 24 nM

## Cc1cccc(C)c1CNc1ncc(C(=O)NO)cn1 [Compound 54]
[1]
  HDAC3 fold over HDAC6 IC50 (selectivity for HDAC6): (73.7x)
  IC50: 1570 nM
[2]
  HDAC2 fold over HDAC6 IC50 (selectivity for HDAC6): (98.9x)
  IC50: 2100 nM
[3]
  IC50: 21 nM
[4]
  HDAC1 fold over HDAC6 IC50 (selectivity for HDAC6): (64.4x)
  IC50: 1370 nM

## O=C(NO)c1cnc(NCc2ccccc2-c2ccccc2)nc1 [Compound 55]
[1]
  HDAC3 fold over HDAC6 IC50 (selectivity for HDAC6): (82.6x)
  IC50: 631 nM
[2]
  HDAC2 fold over HDAC6 IC50 (selectivity for HDAC6): (76.8x)
  IC50: 587 nM
[3]
  IC50: 8 nM
[4]
  HDAC1 fold over HDAC6 IC50 (selectivity for HDAC6): (60.2x)
  IC50: 460 nM

## O=C(NO)c1cnc(NCc2ccc(F)cc2C(F)(F)F)nc1 [Compound 57]
[1]
  HDAC3 fold over HDAC6 IC50 (selectivity for HDAC6): (147.4x)
  IC50: 901 nM
[2]
  HDAC2 fold over HDAC6 IC50 (selectivity for HDAC6): (116.6x)
  IC50: 713 nM
[3]
  IC50: 6 nM
[4]
  HDAC1 fold over HDAC6 IC50 (selectivity for HDAC6): (86x)
  IC50: 526 nM

## O=C(NO)c1cnc(NC23CC4CC(CC(C4)C2)C3)nc1 [Compound 58]
[1]
  HDAC3 fold over HDAC6 IC50 (selectivity for HDAC6): (119.5x)
  IC50: 1080 nM
[2]
  HDAC2 fold over HDAC6 IC50 (selectivity for HDAC6): (77.2x)
  IC50: 701 nM
[3]
  IC50: 9 nM
[4]
  HDAC1 fold over HDAC6 IC50 (selectivity for HDAC6): (60.8x)
  IC50: 552 nM

## O=C(NO)c1cnc(NCCc2ccccc2-c2ccccc2)nc1 [Compound 59]
[1]
  HDAC3 fold over HDAC6 IC50 (selectivity for HDAC6): (22x)
  IC50: 873 nM
[2]
  HDAC2 fold over HDAC6 IC50 (selectivity for HDAC6): (20.5x)
  IC50: 815 nM
[3]
  IC50: 40 nM
[4]
  HDAC1 fold over HDAC6 IC50 (selectivity for HDAC6): (15.3x)
  IC50: 607 nM
